# From EP0402259A1, “Anthracyclines, process for their preparation and medicaments containing them” (LABORATOIRES HOECHST S.A., priority 1989, dated 1990)
# Columns and labels:
# cellules tumorales A549 = assay: Proliferation test (MTT reduction), A549; type: cell-based; settings: A 549, 72 h incubation; for IC50: Homo sapiens, A549, 72 h, read-out: CI50 TEST AU MTT A 549
# Method: (§1) Les témoins consistent en cellules tumorales exposées à un milieu de culture. Quatre puits sont préparés pour chaque concentration en anthracycline et pour le témoin. Après 65 heures. 50 µl de MTT (2,5 mg/ml dans du PBS) sont ajoutés.
# (§2) Le MTT sera réduit en présence de cellules vivantes en un colorant formazan rouge insoluble. Après 7 à 24 heures d'incubation supplémentaire (dépendant des cellules utilisées), le surnageant est enlevé. Le colorant formazan est solubilisé par l'addition de 100 ul de DMSO dans chaque puits, suivie d'une agitation douce.
# (§3) L'extinction est mesurée pour chaque puits, à 492 nm (photomètre Multiscan 340 CC Fa. Flow).
# (§4) Les résultats sont exprimés comme le rapport de l'extinction après incubation avec les anthracyclines sur l'extinction obtenue avec les témoins.
# A549 = assay: Xenograft (subrenal capsule assay), A549; type: in vivo
# cellules tumorales L1210 = assay: Proliferation test (MTT reduction), L1210; type: cell-based; settings: L1210, 72 h incubation; for IC50: Mus musculus, L1210, 72 h, read-out: CI50 TEST AU MTT L1210
# Method: as §1, §2, §3, §4
# HT29 = assay: Xenograft (subrenal capsule assay), HT29 colon tumour; type: in vivo
# cellules tumorales HT29 = assay: Proliferation test (MTT reduction), HT29; type: cell-based; settings: HT 29, 72 h incubation; for IC50: Homo sapiens, HT-29, 72 h, read-out: CI50 TEST AU MTT HT 29
# Method: as §1, §2, §3, §4
# L1210 = assay: In vivo L1210 leukemia, survival time (T/C); design: species or system souris BDF1
# Method: Un liquide d'ascite est prélevé dans des conditions aseptiques chez des souris DBA2 (femelle, 18 -20 g) le septième jours après l'implantation.
# L'ascite est lavée trois fois avec du PBS, comptée et finalement diluée dans du PBS, de manière à obtenir 10^6 cellules/0,2 ml.
# 10^6 cellules dans 0,2 ml de PBS sont injectées dans le peritoine de souris DBA2 pour la propagation de la lignée cellulaire.
# 10^6 cellules dans 0,2 ml de PBS sont injectés intrapéritonéalement à des souris BDF1 (femelle 18 -20 g), 6 animauxigroupe sont utilisés pour chaque concentration de substance et pour le contrôle.
# • a) les animaux sont pesés le premier jour et le cinquième jour après l'administration du médicament.
# A partir du temps de survie moyen des groupes traités (MSTT) et des groupes contrôle (MSTc), l'effet antitumoral (T/C) est évalué en fonction de la formule suivante : [formula]
# LXF = assay: Xenograft (subrenal capsule assay), LXF lung tumour; type: in vivo; settings: for Xénogreffes LXF: grades not defined
# [1] = L1210 i.p. in BDF1 mice, schedule 3 i.v.
Compound,CI50 TEST AU MTT A 549 (cellules tumorales A549),CI50 TEST AU MTT L1210 (cellules tumorales L1210),CI50 TEST AU MTT HT 29 (cellules tumorales HT29),dose optimale (L1210; [1]),Xénogreffes LXF (LXF),IC50 (cellules tumorales A549) [µg/mL],IC50 (cellules tumorales L1210) [µg/mL],IC50 (cellules tumorales HT29) [µg/mL],further results
"C[C@@H]1O[C@@H](O[C@H]2C[C@](O)(CO)Cc3c(O)c4c(c(O)c32)C(=O)c2ccccc2C4=O)C[C@H](O)[C@@H]1N [Composé 13, chlorhydratede (S)-cis-1-O-(4-amino-2,4,6-trideoxy-α-L-lyxo-hexopyranosyl)-1,2.3.4,6.11-hexahydro-1,3,5,12-tétrahydroxy-3-hydroxyméthyl-6,11-naphtacène dione]","0,009 µg/ml","0,009 µg/ml","0,01 µg/ml","3,1 mg/kg/Inj.",+ +,,,,"activité sur la lignée cellulaire A549 (A549; in words): à un moindre degré; activité sur tumeur du colon (HT29) (HT29; in words): à un moindre degré; T/C % (L1210; L1210 i.p. in BDF1 mice, schedule 3 i.v., at optimal dose, T/C above 125 % = significant antitumour effect): 133%; activité antitumorale (L1210; in words, at a dose about three times lower than that of doxorubicine): activité antitumorale non négligeable; activité sur tumeur du poumon (LXF) (LXF; in words): actif"
C[C@@H]1O[C@@H](O[C@H]2C[C@](O)(CO)Cc3c(O)c4c(c(O)c32)C(=O)c2ccccc2C4=O)C[C@H](O)[C@@H]1N=[N+]=[N-] [compound 6],,,,,,0.24,0.13,0.46,
C[C@@H]1O[C@@H](O[C@H]2C[C@](O)(CO)Cc3c(O)c4c(c(O)c32)C(=O)c2ccccc2C4=O)C[C@H](O)[C@@H]1NC(=O)C(F)(F)F [compound 11],,,,,,0.011,0.015,0.026,
"C[C@@H]1O[C@@H](O[C@H]2C[C@](O)(CO)Cc3c(O)c4c(c(O)c32)C(=O)c2ccccc2C4=O)C[C@H](O)[C@@H]1N [compound 12, (S)-cis-1-O-{4 amino-2,4,6-trideoxy-α-L-lyxo-hexopyranosyl)-1,2,3,4,6,11-hexahydro-1,3,5,12-tétrahydroxy-3-hydroxyméthyl-6,11-naphtacène dione]","0,24 µg/ml","0,021 µg/ml","0,03 µg/ml",,,,,,
"C[C@@H]1O[C@@H](O[C@H]2C[C@](O)(CO)Cc3c(O)c4c(c(O)c32)C(=O)c2ccccc2C4=O)C[C@H](O)[C@@H]1N1CCOCC1 [compound 14, (S)-cis-1-O-{4-morpholino-2,4,6-tridésoxy-α-L-lyxo-hexopyranosyl)-1,2,3,4,6,11-hexahydro-1,3,5,12-tétrahydroxy-3-hydroxyméthyl-6,11-naphtacène dione]",,,,,,0.054,0.15,0.13,
"COc1cccc2c1C(=O)c1c(O)c3c(c(O)c1C2=O)C[C@@](O)(C(=O)CO)C[C@@H]3O[C@H]1C[C@H](N)[C@H](O)[C@H](C)O1 [doxorubicine, reference compound]",,,,"8,1 mg/kg/Inj.",+ + +,,,,Xénogreffes A549 (A549; grades not defined): + +; Xénogreffes HT29 (HT29; grades not defined): + +
